{"source": "patent US5162330A", "about": "“Dynemicin C antibiotic, its triacetyl derivative and pharmaceutical composition containing same” (Bristol-Myers Squibb Co., priority 1990, dated 1992)", "key": {"[1]": {"test_system": "Cryptococcus neoformans D49", "assay": "In vitro antifungal MIC", "format": "cell-based", "conditions": "pH 7", "procedure": "(§1) The antifungal MICs of dynemicin C and its triacetate were determined by an agar dilution method on yeast morphology agar adjusted to pH7.0 with 1/15M phosphate buffer. A 5 μl aliquot of fungal suspension containing 10^6 cells/ml was inoculated onto the surface of the antibiotic-containing agar plates with a multiinoculator."}, "[2]": {"test_system": "Candida albicans ATCC 38247", "assay": "In vitro antifungal MIC", "format": "cell-based", "procedure": "as §1"}, "S. aureus smith": {"test_system": "S. aureus smith", "assay": "In vitro antibacterial MIC", "format": "cell-based", "conditions": "Staphylococcus aureus, 18 h, pH 7", "procedure": "(§2) The minimum inhibitory concentration (MIC) was determined by a two-fold serial tube dilution method using nutrient agar (pH7, Difco containing 10^5 cfu/ml)."}, "X. maltophilia GN12873": {"test_system": "X. maltophilia GN12873", "assay": "In vitro antibacterial MIC", "format": "cell-based", "conditions": "Stenotrophomonas maltophilia, pH 7, nutrient agar pH7, 32° C., 18 hours", "procedure": "as §2"}, "P. vulgaris IPM-13": {"test_system": "P. vulgaris IPM-13", "assay": "In vitro antibacterial MIC", "format": "cell-based", "conditions": "Proteus vulgaris, IPM13, 18 h, pH 7", "procedure": "as §2"}, "M. morganii I510": {"test_system": "M. morganii I510", "assay": "In vitro antibacterial MIC", "format": "cell-based", "conditions": "Morganella morganii, I510, 18 h, pH 7", "procedure": "as §2"}, "S. epidermidis 11-1230": {"test_system": "S. epidermidis 11-1230", "assay": "In vitro antibacterial MIC", "format": "cell-based", "conditions": "Staphylococcus epidermidis, 111230, 18 h, pH 7", "procedure": "as §2"}, "P. aeruginosa IPM-9": {"test_system": "P. aeruginosa IPM-9", "assay": "In vitro antibacterial MIC", "format": "cell-based", "conditions": "Pseudomonas aeruginosa, IPM9, 18 h, pH 7", "procedure": "as §2"}, "S. marcescens IPM-16": {"test_system": "S. marcescens IPM-16", "assay": "In vitro antibacterial MIC", "format": "cell-based", "conditions": "Serratia marcescens, IPM16, 18 h, pH 7", "procedure": "as §2"}, "M. luteus PCI 1001": {"test_system": "M. luteus PCI 1001", "assay": "In vitro antibacterial MIC", "format": "cell-based", "conditions": "Micrococcus luteus, PCI1001, pH 7, nutrient agar pH7, 32° C., 18 hours", "procedure": "as §2"}, "P. aeruginosa A9843A": {"test_system": "P. aeruginosa A9843A", "assay": "In vitro antibacterial MIC", "format": "cell-based", "conditions": "Pseudomonas aeruginosa, 18 h, pH 7", "procedure": "as §2"}, "E. faecalis A9808": {"test_system": "E. faecalis A9808", "assay": "In vitro antibacterial MIC", "format": "cell-based", "conditions": "Enterococcus faecalis, A9808, 18 h, pH 7", "procedure": "as §2"}, "E. faecium A24817": {"test_system": "E. faecium A24817", "assay": "In vitro antibacterial MIC", "format": "cell-based", "conditions": "Enterococcus faecium, pH 7, nutrient agar pH7, 32° C., 18 hours", "procedure": "as §2"}, "P. cepecia A21213": {"test_system": "P. cepecia A21213", "assay": "In vitro antibacterial MIC", "format": "cell-based", "conditions": "18 h, pH 7", "procedure": "as §2"}, "P. mirabilis IFO 3849": {"test_system": "P. mirabilis IFO 3849", "assay": "In vitro antibacterial MIC", "format": "cell-based", "conditions": "Proteus mirabilis, IFO3849, 18 h, pH 7", "procedure": "as §2"}, "S. aureus A15036 (MRSA)": {"test_system": "S. aureus A15036 (MRSA)", "assay": "In vitro antibacterial MIC", "format": "cell-based", "conditions": "Staphylococcus aureus, 18 h, pH 7", "procedure": "as §2"}, "P. aeruginosa A20599": {"test_system": "P. aeruginosa A20599", "assay": "In vitro antibacterial MIC", "format": "cell-based", "conditions": "Pseudomonas aeruginosa, A20599, 18 h, pH 7", "procedure": "as §2"}, "E. coli 255": {"test_system": "E. coli 255", "assay": "In vitro antibacterial MIC", "format": "cell-based", "conditions": "Escherichia coli, 255, 18 h, pH 7", "procedure": "as §2"}, "S. aureus IPM-24 (MRSA)": {"test_system": "S. aureus IPM-24 (MRSA)", "assay": "In vitro antibacterial MIC", "format": "cell-based", "conditions": "Staphylococcus aureus, 18 h, pH 7", "procedure": "as §2"}, "P. aeruginosa IPM-8": {"test_system": "P. aeruginosa IPM-8", "assay": "In vitro antibacterial MIC", "format": "cell-based", "conditions": "Pseudomonas aeruginosa, IPM8, 18 h, pH 7", "procedure": "as §2"}, "P. cepecia No. 651": {"test_system": "P. cepecia No. 651", "assay": "In vitro antibacterial MIC", "format": "cell-based", "conditions": "18 h, pH 7", "procedure": "as §2"}, "K. pneumoniae PCI 602": {"test_system": "K. pneumoniae PCI 602", "assay": "In vitro antibacterial MIC", "format": "cell-based", "conditions": "Klebsiella pneumoniae, PCI602, 18 h, pH 7", "procedure": "as §2"}, "S. marcescens IPM-15": {"test_system": "S. marcescens IPM-15", "assay": "In vitro antibacterial MIC", "format": "cell-based", "conditions": "Serratia marcescens, IPM15, 18 h, pH 7", "procedure": "as §2"}, "P. aeruginosa KKA19": {"test_system": "P. aeruginosa KKA19", "assay": "In vitro antibacterial MIC", "format": "cell-based", "conditions": "Pseudomonas aeruginosa, pH 7, nutrient agar pH7, 32° C., 18 hours", "procedure": "as §2"}, "E. cloacae IPM-12": {"test_system": "E. cloacae IPM-12", "assay": "In vitro antibacterial MIC", "format": "cell-based", "conditions": "Enterobacter cloacae, IPM12, 18 h, pH 7", "procedure": "as §2"}, "E. coli Juhl A15119": {"test_system": "E. coli Juhl A15119", "assay": "In vitro antibacterial MIC", "format": "cell-based", "conditions": "Escherichia coli, JUHLA15119, 18 h, pH 7", "procedure": "as §2"}, "X. maltophilia No. 661": {"test_system": "X. maltophilia No. 661", "assay": "In vitro antibacterial MIC", "format": "cell-based", "conditions": "Stenotrophomonas maltophilia, pH 7, nutrient agar pH7, 32° C., 18 hours", "procedure": "as §2"}, "P. rettgeri IPM-14": {"test_system": "P. rettgeri IPM-14", "assay": "In vitro antibacterial MIC", "format": "cell-based", "conditions": "Providencia rettgeri, IPM14, 18 h, pH 7", "procedure": "as §2"}, "C. neoformans IAM4514": {"test_system": "C. neoformans IAM4514", "assay": "In vitro antifungal MIC", "format": "cell-based, Cryptococcus neoformans", "procedure": "as §1"}, "[3]": {"test_system": "HCT-116 (human colon carcinoma) cells", "assay": "In vitro cytotoxicity", "format": "cell-based", "conditions": "72 hours, 37° C., neutral red, 540 nm", "procedure": "(§3) Dynemicin C and its triacetate derivative were tested for in vitro cytotoxicity against murine and human tumor cell lines. Dynemicin A and its triacetate derivative were used as reference compounds. B16-F10 (murine melanoma) cells were grown to the logarithmic phase in enriched Eagle minimum essential medium (MEM) supplemented with fetal calf serum (FCS, 10%) and kanamycin (60 mcg/ml) and HCT-116 (human colon carcinoma) cells in Maccoy's 5A medium supplemented with FCS (10%), penicillin (100 μ/ml) and streptomycin (100 mcg/ml), and were harvested and inoculated into wells of the 96- or 24-well tissue culture plate with test materials at concentrations of 1.5×10^4, 1.3×10^4, 1.3×10^4, 2.5×10^4 and 3.0×10^4 cells/ml., respectively. They were incubated at 37° C. in a humidified atmosphere of 5% CO2 and 95% air for 72 hours. The cytotoxic activities were determined colorimetrically at 540 nm after staining viable cells with 0.006% neutral red solution."}, "[4]": {"test_system": "B16-F10 (murine melanoma) cells", "assay": "In vitro cytotoxicity", "format": "cell-based", "conditions": "Mus musculus, 72 hours, 37° C., neutral red, 540 nm", "procedure": "as §3"}, "[5]": {"conditions": "Cryptococcus neoformans, D49, 40 h"}, "[6]": {"conditions": "Cryptococcus neoformans, IAM4514, 40 h, pH 7"}, "[7]": {"conditions": "ATCC38247, pH 7, Candida albicans ATCC 38247, amphotericin resistant strain, yeast morphology agar pH7.0, 28° C., 40 hours, read-out: MIC"}}, "note": "Where two headings read alike, the source gives them in different places."}
{"smiles": "COC1=C(C(=O)O)C(C)C23OC24c2cc(O)c5c(c2NC3C#CC=CC#CC14)C(=O)c1c(O)ccc(O)c1C5=O", "note": "(stereo not shown) [Dynemicin A, reference compound]", "values": [{"measurement": "MIC", "setting": "[1]; [5]", "result": 200, "unit": "ng/mL"}, {"measurement": "MIC", "setting": "[2]; Candida albicans, ATCC38247, 40 h, pH 7", "result": "< 3.1", "unit": "ng/mL"}, {"measurement": "MIC", "setting": "S. aureus smith", "result": "< 0.025", "unit": "ng/mL"}, {"measurement": "MIC", "setting": "X. maltophilia GN12873", "result": 1.6, "unit": "ng/mL"}, {"measurement": "MIC", "setting": "P. vulgaris IPM-13", "result": 0.8, "unit": "ng/mL"}, {"measurement": "MIC", "setting": "M. morganii I510", "result": 0.8, "unit": "ng/mL"}, {"measurement": "MIC", "setting": "S. epidermidis 11-1230", "result": "< 0.025", "unit": "ng/mL"}, {"measurement": "MIC", "setting": "P. aeruginosa IPM-9", "result": 6.3, "unit": "ng/mL"}, {"measurement": "MIC", "setting": "S. marcescens IPM-16", "result": 3.2, "unit": "ng/mL"}, {"measurement": "MIC", "setting": "M. luteus PCI 1001", "result": "< 0.025", "unit": "ng/mL"}, {"measurement": "MIC", "setting": "P. aeruginosa A9843A", "result": 1.6, "unit": "ng/mL"}, {"measurement": "MIC", "setting": "E. faecalis A9808", "result": "< 0.025", "unit": "ng/mL"}, {"measurement": "MIC", "setting": "E. faecium A24817", "result": "< 0.025", "unit": "ng/mL"}, {"measurement": "MIC", "setting": "P. cepecia A21213", "result": 0.8, "unit": "ng/mL"}, {"measurement": "MIC", "setting": "P. mirabilis IFO 3849", "result": 1.6, "unit": "ng/mL"}, {"measurement": "MIC", "setting": "S. aureus A15036 (MRSA)", "result": "< 0.025", "unit": "ng/mL"}, {"measurement": "MIC", "setting": "P. aeruginosa A20599", "result": 3.2, "unit": "ng/mL"}, {"measurement": "MIC", "setting": "E. coli 255", "result": 3.2, "unit": "ng/mL"}, {"measurement": "MIC", "setting": "S. aureus IPM-24 (MRSA)", "result": "< 0.025", "unit": "ng/mL"}, {"measurement": "MIC", "setting": "P. aeruginosa IPM-8", "result": 3.2, "unit": "ng/mL"}, {"measurement": "MIC", "setting": "P. cepecia No. 651", "result": 0.8, "unit": "ng/mL"}, {"measurement": "MIC", "setting": "K. pneumoniae PCI 602", "result": 3.2, "unit": "ng/mL"}, {"measurement": "MIC", "setting": "S. marcescens IPM-15", "result": 3.2, "unit": "ng/mL"}, {"measurement": "MIC", "setting": "P. aeruginosa KKA19", "result": 3.2, "unit": "ng/mL"}, {"measurement": "MIC", "setting": "E. cloacae IPM-12", "result": 1.6, "unit": "ng/mL"}, {"measurement": "MIC", "setting": "E. coli Juhl A15119", "result": 3.2, "unit": "ng/mL"}, {"measurement": "MIC", "setting": "X. maltophilia No. 661", "result": 0.8, "unit": "ng/mL"}, {"measurement": "MIC", "setting": "P. rettgeri IPM-14", "result": 0.8, "unit": "ng/mL"}, {"measurement": "MIC", "setting": "C. neoformans IAM4514; [6]", "result": 200, "unit": "ng/mL"}, {"measurement": "IC50", "setting": "[3]", "result": 3.2, "unit": "ng/mL"}, {"measurement": "IC50", "setting": "[4]", "result": 5.2, "unit": "ng/mL"}]}
{"smiles": "CC(=O)N1CCN(c2ccc(OCC3COC(Cn4ccnc4)(c4ccc(Cl)cc4Cl)O3)cc2)CC1", "note": "(stereo not shown) [Ketoconazole, reference compound]", "values": [{"measurement": "MIC", "setting": "[1]; Cryptococcus neoformans D49, yeast morphology agar pH7.0, 28° C., 40 hours, read-out: MIC", "result": 100, "unit": "ng/mL"}, {"measurement": "MIC", "setting": "[2]; [7]", "result": 6300, "unit": "ng/mL"}, {"measurement": "MIC", "setting": "C. neoformans IAM4514; IAM4514, pH 7, Cryptococcus neoformans IAM 4514, yeast morphology agar pH7.0, 28° C., 40 hours, read-out: MIC", "result": 100, "unit": "ng/mL"}]}
{"smiles": "C[C@@H]1[C@H](O)[C@@H](C)/C=C/C=C/C=C/C=C/C=C/C=C/C=C/[C@H](O[C@@H]2O[C@H](C)[C@@H](O)[C@H](N)[C@@H]2O)C[C@@H]2O[C@](O)(C[C@@H](O)C[C@@H](O)[C@H](O)CC[C@@H](O)C[C@@H](O)CC(=O)O[C@H]1C)C[C@H](O)[C@H]2C(=O)O", "note": "[Amphotericin B, reference compound]", "values": [{"measurement": "MIC", "setting": "[1]; [5]", "result": 200, "unit": "ng/mL"}, {"measurement": "MIC", "setting": "[2]; [7]", "result": 50000, "unit": "ng/mL"}, {"measurement": "MIC", "setting": "C. neoformans IAM4514; [6]", "result": 400, "unit": "ng/mL"}]}
